# Reference: ChEMBL document CHEMBL5385944, “Hydrazyl hydroxycoumarins as new potential conquerors towards Pseudomonas aeruginosa” (Bioorg Med Chem Lett, 2024)
# What was measured:
# Assay type in all cases: functional
# Staphylococcus aureus [1] = experiment: Antibacterial activity against methicillin resistant Staphylococcus aureus assessed as reduction in bacterial growth by CLSI protocol based method
# Staphylococcus aureus [2] = experiment: Antibacterial activity against methicillin resistant Staphylococcus aureus 43300 assessed as reduction in bacterial growth by CLSI protocol based method
# Enterococcus faecalis = experiment: Antibacterial activity against Enterococcus faecalis assessed as reduction in bacterial growth by CLSI protocol based method
# Staphylococcus aureus [3] = experiment: Antibacterial activity against Staphylococcus aureus ATCC 25923 assessed as reduction in bacterial growth by CLSI protocol based method
# Staphylococcus aureus [4] = experiment: Antibacterial activity against Staphylococcus aureus ATCC 29213 assessed as reduction in bacterial growth by CLSI protocol based method
# Klebsiella pneumoniae = experiment: Antibacterial activity against Klebsiella pneumoniae assessed as reduction in bacterial growth by CLSI protocol based method
# Pseudomonas aeruginosa [5] = experiment: Antibacterial activity against Pseudomonas aeruginosa assessed as reduction in bacterial growth by CLSI protocol based method
# Pseudomonas aeruginosa [6] = experiment: Antibacterial activity against Pseudomonas aeruginosa ATCC 27853 assessed as reduction in bacterial growth by CLSI protocol based method
# Pseudomonas aeruginosa [7] = experiment: Antibacterial activity against Pseudomonas aeruginosa ATCC 10104 assessed as reduction in bacterial growth by CLSI protocol based method
# Pseudomonas aeruginosa [8] = experiment: Antibacterial activity against Pseudomonas aeruginosa ATCC 90027 assessed as reduction in bacterial growth by CLSI protocol based method
# Acinetobacter baumannii = experiment: Antibacterial activity against Acinetobacter baumannii assessed as reduction in bacterial growth by CLSI protocol based method
# Escherichia coli = experiment: Antibacterial activity against Escherichia coli ATCC 25922 assessed as reduction in bacterial growth by CLSI protocol based method
# [9] = Induction of drug resistance in Pseudomonas aeruginosa ATCC 27853 measured after 12 passages
SMILES,MIC (Staphylococcus aureus [1]) [µg/mL],MIC (Staphylococcus aureus [2]) [µg/mL],MIC (Enterococcus faecalis) [µg/mL],MIC (Staphylococcus aureus [3]) [µg/mL],MIC (Staphylococcus aureus [4]) [µg/mL],MIC (Klebsiella pneumoniae) [µg/mL],MIC (Pseudomonas aeruginosa [5]) [µg/mL],MIC (Pseudomonas aeruginosa [6]) [µg/mL],MIC (Pseudomonas aeruginosa [7]) [µg/mL],MIC (Pseudomonas aeruginosa [8]) [µg/mL],MIC (Acinetobacter baumannii) [µg/mL],MIC (Escherichia coli) [µg/mL],MIC [9] [µg/mL]
Cc1ncc([N+](=O)[O-])n1CC(=O)N/N=C/c1c(O)ccc2ccc(=O)oc12,256,128,32,4,256,256,256,8,64,32,256,256,
O=C(N/N=C/c1c(O)ccc2ccc(=O)oc12)c1ccc(O)cc1,512,512,512,512,512,256,512,512,512,512,512,512,
N/N=C/c1c(O)ccc2ccc(=O)oc12,128,128,512,16,512,128,512,128,512,512,256,32,
O=c1ccc2ccc(O)c(/C=N/NS(=O)(=O)c3ccc(Cl)cc3)c2o1,512,512,512,512,4,256,256,512,512,512,512,256,
COC(=O)N/N=C/c1c(O)ccc2ccc(=O)oc12,512,512,256,64,512,128,32,256,512,128,128,1,
Cc1cc(NS(=O)(=O)c2ccc(N/N=C/c3c(O)ccc4ccc(=O)oc34)cc2)no1,256,512,256,256,512,256,512,512,256,256,256,512,
N=C(N)N/N=C/c1c(O)ccc2ccc(=O)oc12,512,256,32,512,64,512,4,256,512,4,256,256,
CC(=O)Nc1ccc(S(=O)(=O)N/N=C/c2c(O)ccc3ccc(=O)oc23)cc1,512,512,512,512,512,512,512,512,512,64,128,256,
Nc1ncc(C(=O)N/N=C/c2c(O)ccc3ccc(=O)oc23)s1,16,64,128,1,256,8,256,32,2,1,1,128,
O=C(N/N=C/c1c(O)ccc2ccc(=O)oc12)c1ccc(Cl)cc1,512,512,256,256,256,256,256,256,32,256,256,256,
CCn1cc(C(=O)O)c(=O)c2cc(F)c(N3CCNCC3)cc21 [NORFLOXACIN],4,8,4,2,2,4,4,4,5,2,2,4,128
O=C(N/N=C/c1c(O)ccc2ccc(=O)oc12)c1ccc([N+](=O)[O-])cc1,512,512,512,512,512,512,512,512,512,512,512,4,
O=C(N/N=C/c1c(O)ccc2ccc(=O)oc12)c1ccc(F)cc1,512,16,512,256,512,256,512,512,128,512,256,256,
O=c1ccc2ccc(O)c(/C=N/Nc3ccc(S(=O)(=O)Nc4nccs4)cc3)c2o1,512,512,512,256,256,512,256,256,512,256,256,512,
